Data set [1] deals with Hsp82 (Saccharomyces cerevisiae, UniProt P02829). The data set can be described thus: PK/LDH enzyme coupling test of the ATPase activity of Hsp82 (NADH decrease at 340 nm). In kind it is biochemical. The following applies: 1 μM Hsp82, 250 μM ATP, 37° C., pyruvate kinase/lactate dehydrogenase coupling, read-out: Hsp82 ATPase IC50. Summed up:
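Yeast Hsp82 ATPase was coupled to PK/LDH, with ADP formation followed continuously as NADH loss at 340 nm at 37 °C. The mixture was preincubated 30 min at 37 °C, and the reaction was started with compound at variable concentrations plus Hsp82 at 1 μM. Initial rates (μM ADP/min) came from the tangent slope at origin, expressed as % inhibition.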

Counter-ions that a name gives are not always drawn.

Sequence of Hsp82 (P02829 whole entry): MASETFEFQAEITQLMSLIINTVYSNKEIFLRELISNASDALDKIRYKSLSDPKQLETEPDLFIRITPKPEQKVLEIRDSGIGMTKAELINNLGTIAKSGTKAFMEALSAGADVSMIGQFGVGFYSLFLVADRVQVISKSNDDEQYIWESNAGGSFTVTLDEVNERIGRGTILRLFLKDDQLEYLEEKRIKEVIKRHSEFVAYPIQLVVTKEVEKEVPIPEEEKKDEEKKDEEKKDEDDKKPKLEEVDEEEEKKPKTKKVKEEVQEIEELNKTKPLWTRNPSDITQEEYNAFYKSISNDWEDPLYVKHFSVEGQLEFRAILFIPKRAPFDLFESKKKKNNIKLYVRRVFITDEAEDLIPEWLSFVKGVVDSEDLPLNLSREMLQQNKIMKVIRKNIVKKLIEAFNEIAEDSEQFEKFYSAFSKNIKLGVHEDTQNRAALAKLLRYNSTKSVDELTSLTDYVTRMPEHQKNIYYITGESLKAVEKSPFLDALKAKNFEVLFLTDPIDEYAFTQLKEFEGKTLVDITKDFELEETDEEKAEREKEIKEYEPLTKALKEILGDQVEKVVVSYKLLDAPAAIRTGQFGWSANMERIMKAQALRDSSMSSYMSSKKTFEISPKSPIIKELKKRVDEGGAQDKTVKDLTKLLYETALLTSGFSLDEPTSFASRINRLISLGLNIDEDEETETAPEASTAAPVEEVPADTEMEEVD

Usually IC50 stands for the point on the concentration scale where inhibition reaches its midpoint. One may read the melting point as the temperature of the solid-liquid transition. As to `O=C(NC1c2ccccc2-c2c(-c3nc4cnccc4[nH]3)cccc21)c1cccc2ncccc12` (racemic) [Example 14, [4-(3H-imidazo[4,5-c]pyridin-2-yl)-9H-fluoren-9(R,S)-yl]amide of quinoline-5-carboxylic acid], the melting point was 254 to 258 °C (dec.). For the same molecule, the IC50 in data set [1] was under 1 µM.

Turning to `NC1c2ccccc2-c2c(-c3nc4ccc(F)cc4[nH]3)cccc21` (racemic) [Example 71, 4-(6-fluoro-1H-benzimidazol-2-yl)-9H-fluoren-9(R,S)-ylamine], the melting point is 170 to 172 °C. The IC50 in data set [1] lay within 10 to 100 µM. As to `O=C(NC1c2ccccc2-c2c(-c3nc4ccncc4[nH]3)cccc21)c1c[nH]c2ncccc12` (racemic) [Example 99, [4-(3H-imidazo[4,5-c]pyridin-2-yl)-9H-fluoren(R,S)-9-yl]amide of 1H-pyrrolo[2,3-b]pyridine-3-carboxylic acid], the melting point was 225 °C (dec.). For the same molecule, in data set [1], the 50% inhibitory concentration (IC50) is under 1 µM. Regarding `Cn1cc(C(=O)NC2c3ccccc3-c3c(-c4nc5ccncc5[nH]4)cccc32)c2cccnc21` (racemic) [Example 101, [4-(3H-imidazo[4,5-c]pyridin-2-yl)-9H-fluoren-9(R,S)-yl]amide of 1-methyl-1H-pyrrolo[2,3-b]pyridine-3-carboxylic acid], the melting point was 204 °C (dec.). For the same molecule, in data set [1], the IC50 was 1 to 10 µM.

The molecule `O=C(NC1c2ccccc2-c2c(-c3nc4ccncc4[nH]3)cccc21)c1cccc2[nH]ncc12` (racemic) [Example 111, [4-(3H-imidazo[4,5-c]pyridin-2-yl)-9H-fluoren-9(R,S)-yl]amide of 1H-indazole-4-carboxylic acid] returned a melting point of 230 to 235 °C. For the same molecule, the IC50 in data set [1] is under 1 µM. The like results for `Cc1cc(C(=O)NC2c3ccccc3-c3c(-c4nc5ccncc5[nH]4)cccc32)cc(Cl)n1` (racemic) [Example 123, 2-chloro-N-[4-(3H-imidazo[4,5-c]pyridin-2-yl)-9H-fluoren-9(R,S)-yl]-6-methyl-isonicotinamide] were, in that order, 250 °C and 1 to 10 µM.

Regarding `COc1ccc(C(=O)NC2c3ccccc3-c3c(-c4nc5ccncc5[nH]4)cccc32)cc1` (racemic) [Example 127, N-[4-(3H-imidazo[4,5-c]pyridin-2-yl)-9H-fluoren-9(R,S)-yl]-4-methoxybenzamide], the melting point came out at 194 °C.

As to `O=C1c2ccccc2-c2c1cccc2-c1nc2cnccc2[nH]1` [Example 1, 4-(3H-imidazo[4,5-c]pyridin-2-yl)-fluoren-9-one], the melting point was in the range of 236 to 238 °C. Further, the IC50 in data set [1] was in the range of 1 to 10 µM. For `CC(C)(C)OC(=O)N[C@@H](CC(N)=O)C(=O)NC1c2ccccc2-c2c(-c3nc4cnccc4[nH]3)cccc21` (stereo partly drawn) [Example 57, tert-butyl ester of {(S)-2-carbamoyl-1-[4-(3H-imidazo[4,5-c]pyridin-2-yl)-9H-fluoren-9(R,S)-ylcarbamoyl]-ethyl}-carbamoic acid], the IC50 in data set [1] lay in the range of 1 to 10 µM. With `CC(C)(C)OC(=O)N[C@H](CC(=O)NC1c2ccccc2-c2c(-c3nc4cnccc4[nH]3)cccc21)C(N)=O` (stereo partly drawn) [Example 59, tert-butyl ester of {(R)-1-carbamoyl-2-[4-(3H-imidazo[4,5-c]pyridin-2-yl)-9H-fluoren-9(R,S)-ylcarbamoyl]-ethyl}-carbamoic acid], in data set [1], the IC50 is 1 to 10 µM.

Consider `CC(C)(C)OC(=O)N[C@H](CC(N)=O)C(=O)NC1c2ccccc2-c2c(-c3nc4cnccc4[nH]3)cccc21` (stereo partly drawn) [Example 61, tert-butyl ester of {(R)-2-carbamoyl-1-[4-(3H-imidazo[4,5-c]pyridin-2-yl)-9H-fluoren-9(R,S)-ylcarbamoyl]-ethyl}-carbamoic acid], for which the IC50 in data set [1] lay in the range of 1 to 10 µM. On to `NC(=O)C[C@H](N)C(=O)NC1c2ccccc2-c2c(-c3nc4cnccc4[nH]3)cccc21` (stereo partly drawn) [Example 63, hydrochloride of (S)-2-amino-N1-[4-(3H-imidazo[4,5-c]pyridin-2-yl)-9H-fluoren-9(R,S)-yl]-succinamide], for which the IC50 in data set [1] fell in the range of 1 to 10 µM.

In the case of `NC(=O)C[C@@H](N)C(=O)NC1c2ccccc2-c2c(-c3nc4cnccc4[nH]3)cccc21` (stereo partly drawn) [Example 65, hydrochloride of (R)-2-amino-N1-[4-(3H-imidazo[4,5-c]pyridin-2-yl)-9H-fluoren-9(R,S)-yl]-succinamide], the IC50 in data set [1] fell in the range of 1 to 10 µM. As to `O=C1c2ccccc2-c2c1cccc2-c1nc2ccc(F)cc2[nH]1` [Example 69, 4-(6-fluoro-1H-benzimidazol-2-yl)-fluoren-9-one], the IC50 in data set [1] was in the range of 10 to 100 µM. For `O=C(NC1c2ccccc2-c2c(-c3nc4ccncc4[nH]3)cccc21)c1cc(C2CC2)nc2ccccc12` (stereo not shown) [Example 85, [4-(3H-imidazo[4,5-c]pyridin-2-yl)-9H-fluoren-9-yl]amide of 2-cyclopropyl-quinoline-4-carboxylic acid], in data set [1], the IC50 was 1 to 10 µM.

On to `O=C(NC1c2ccccc2-c2c(-c3nc4ccncc4[nH]3)cccc21)c1ccnnc1` (stereo not shown) [Example 86, [4-(3H-imidazo[4,5-c]pyridin-2-yl)-9H-fluoren-9-yl]amide of pyridazine-4-carboxylic acid], for which, in data set [1], the IC50 lay in the range of 1 to 10 µM. For the molecule `O=C(NC1c2ccccc2-c2c(-c3nc4ccncc4[nH]3)cccc21)c1cc(O)nc(O)n1` (stereo not shown) [Example 88, [4-(3H-imidazo[4,5-c]pyridin-2-yl)-9H-fluoren-9-yl]amide of 2,6-dihydroxypyrimidine-4-carboxylic acid], the IC50 in data set [1] lay within 1 to 10 µM. In the case of `O=C(NC1c2ccccc2-c2c(-c3nc4ccncc4[nH]3)cccc21)c1ccnc(O)n1` (stereo not shown) [Example 89, [4-(3H-imidazo[4,5-c]pyridin-2-yl)-9H-fluoren-9-yl]amide of 2-hydroxypyrimidine-4-carboxylic acid], in data set [1], the IC50 is 1 to 10 µM. Regarding `Cc1ccc2c(C(=O)NC3c4ccccc4-c4c(-c5nc6ccncc6[nH]5)cccc43)cccc2n1` (stereo not shown) [Example 90, [4-(3H-imidazo[4,5-c]pyridin-2-yl)-9H-fluoren-9-yl]amide of 2-methyl-quinoline-5-carboxylic acid], the 50% inhibitory concentration (IC50) in data set [1] lay within 1 to 10 µM. Regarding `Nc1nccc(C(=O)NC2c3ccccc3-c3c(-c4nc5ccncc5[nH]4)cccc32)n1` (stereo not shown) [Example 91, [4-(3H-imidazo[4,5-c]pyridin-2-yl)-9H-fluoren-9-yl]amide of 2-amino-pyrimidine-4-carboxylic acid], the IC50 in data set [1] is under 1 µM. Consider `O=C(NC1c2ccccc2-c2c(-c3nc4ccncc4[nH]3)cccc21)c1cc(O)ncn1` (stereo not shown) [Example 93, [4-(3H-imidazo[4,5-c]pyridin-2-yl)-9H-fluoren-9-yl]amide of 6-hydroxypyrimidine-4-carboxylic acid], for which, in data set [1], the IC50 was 1 to 10 µM.
